Test results taken from patent US9453051B2, “Cyclosporin derivatives” (priority 2011, dated 2016).

Assays:
NFAT = assay: Cellular NFAT-reporter-gene assay (GloResponse NFAT-RE-luc2P HEK293); assay type: cell-based; details: Homo sapiens, HEK293, 16 h, read-out: NFAT-reporter-gene assay IC50
Source text: An antigen specific stimulation of the T-cell receptor causes the activation of transcription factors such as e.g. NFAT (nuclear factor of activated T cells). NFAT-activation is essential for the expression of interleukine-2 and therefore, for the proliferation of T-cells as part of the immune response. A stable NFAT-reporter-gene cell line enables the analysis of modulators of the NFAT-pathways and thus, the evaluation of the immunosuppressive effects of compounds.
The stably transfected reporter-gene cell line GloResponse NFAT-RE-luc2P HEK293 (promega Corp. USA) was cultivated in DMEM (10% FCS; 2 mM Glutamin; 200 μg/ml Hygromycin) and seeded on 96-well plates (200.000 cells/well). The compounds to be tested were either added to the cells in a 2-point-determination (5 μM and 10 μM) or an ICH-determination (concentration series 4.1 nM-1 μM). […] Immediately thereafter the cells were stimulated with 5 nM PMA and 2 μM ionomycin and incubated over 16 h (37° C.; cell incubator). This double stimulation simulates a T-cell receptor stimulation and causes a NFAT activation with subsequently expression of the luciferase-reporter-gene. The amount of luciferase was quantitatively determined after 16 h by measurement of the bioluminescence by Bright-Glo Luciferase-Assay-System (Promega Corp., USA). The averaged luciferase values of the vehicle treated (1% DMSO) and with PMA/ionomycin stimulated cells were used as positive control and reference value.

[1] = molecular target: recombinant human wild type Cyp18 (Cyp18 wt) (Homo sapiens, UniProt P62937); assay: biochemical
Experimental: The determination was performed on a UV/Vis spectrometer at 10° C. cuvette temperature, whereby the device is operated at 390 nm in kinetic-mode (measurement buffer: 35 mM HEPES/NaOH pH 7.8 (AppliChem A1069)). 0.58 nM recombinant human wild type Cyp18 (Cyp18 wt), 2.33 nM bovine serum albumin (BSA) and 1 mg/ml chymotrypsin (Merck) solved in 35 mM HEPES/NaOH pH 7.8 as well as different concentration of each test substance, where appropriate, were in the cuvette. The reaction was started with a stock solution of Suc-Ala-Ala-Pro-Phe-4-nitroanilide (Bachem, 10 mg/ml DMSO) as substrate so that a final substrate concentration of 32 μM resulted. The extinction-time-curves were evaluated after expiry of the fast phase of the reaction i.e. after approximately 60 seconds according to a rate equation of a first-order reaction.

[2] = Determination of cell permeability in PAMPA cell membranes (Parallel Artificial Membrane Permeability Assay); assay type: in vitro ADME; details: 500 μM, Hepes buffer pH 7.4, 16 hours, room temperature
Experimental: After an incubation of 16 hours at room temperature in a liquid chamber the optical density of the solution after filtration has been measured in a range of 250 to 500 nm in steps of 10 nm each. The percentage “Flux” has been calculated from the integral of the graph between 250 and 500 nm and standardized on the optical density determined in the parallel reaction without artificial membrane.

calcineurin = calcineurin (Homo sapiens, UniProt P62937+P63098+Q08209); assay: Inhibition of the phosphatase activity of calcineurin (scintillation-proximity-assay, in presence of Cyp18);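 note: calcineurin dephosphorylation of a ³³P-labelled RII phosphopeptide, captured on streptavidin-coated wells and read by scintillation counting, with uninhibited enzyme activity taken as 100%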
in vitro = details: human, Caco-2, pH 7.4
Jurkat cells = assay: Determination of cell permeability in Jurkat cells (displacement of fluorescent CsA derivative, FACS); assay type: cell-based; details: FIG. 1; in comparison to CsA
Experimental: Jurkat cells of the cell culture have been harvested and centrifuged. The medium has been discarded and the cells were washed once with RPM′ (without phenol red, 10% FCS, Hepes, gentamicin). The cells were re-suspended in a medium adjusted to a cell concentration of 1.0×10^5-3.0×10^5 cells/ml and subsequently incubated with a fluorescent CsA derivative (0.5 μM-2.0 μM) at 37° C., 5-10% CO2 and 100% humidity. The cells were then centrifuged, the medium discarded and the cell pellet was washed once with medium and the cells were resuspended in a new medium. Subsequently, the cells were incubated for a half hour to 4 hours with the corresponding concentration (0.01 μM to 100 μM) of the test compound to be analyzed and then centrifuged again. The medium was discarded; it was once washed with 1 ml PBS and suspended in 500 μl PBS. The analysis was carried out using FACS-measurement by quantification of the replaced fluorescent CsA-derivative. The reference (without inhibitor) was thereby set 100%.

[3] = tested on: ovalbumin sensitized mice (BALB/c-strain); assay: Asthma evaluations (ovalbumin sensitized mice); assay type: in vivo; details: 200 μg i.p. at days 7, 9 and 11
Experimental: By application of ovalbumin together with aluminium hydroxide an immune response to ovalbumin is provoked. The immune response may be traced using the immigrated T-helper cell population (CD4+) and the immigrated eosinophilic granulocytes. Female mice (BALB/c-strain) were sensitized by intraperitoneal (i.p.) application of 50 μg ovalbumin solved in phosphate buffer (PBS) ((OVA) plus 100 μl aluminium hydroxide) with a total volume of 200 μl per mouse on day 0. 100 μg OVA in PBS (50 μl total volume) was intranasal administered to the ovalbumin sensitized mice under mild anesthesia (isoflurane) at days 7-10. These animals were divided into groups which obtained in addition either 200 μg test compound in PBS (i.p.), only PBS (diluent) or no further additive (−) at days 7, 9 and 11. At day 12 all animals were sacrificed by CO2 exposition and cells of the bronchial tract were obtained by bronchial lavage (BAL) with threefold washing with 1 ml of cold PBS each using a cannula introduced into the trachea. The cells obtained by BAL were then stained twice (a) with Cy-chrome conjugated anti-mouse CD4 antibodies and (b) with FITC conjugated anti-mouse CD62L antibodies. Subsequently, the cells were analyzed by FACS. Effector/memory CD4^+ T-cells were differentiated as CD4^+/CD62L^− lymphocytes and eosinophilic cells using their stray light characteristics (FSC/CCS).

Sequence of recombinant human wild type Cyp18 (Cyp18 wt) (P62937 whole entry): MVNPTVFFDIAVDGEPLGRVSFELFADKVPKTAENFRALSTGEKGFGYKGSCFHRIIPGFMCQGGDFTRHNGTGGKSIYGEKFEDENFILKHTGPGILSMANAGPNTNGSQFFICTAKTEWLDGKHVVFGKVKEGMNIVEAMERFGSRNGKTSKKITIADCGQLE

Row | Structure (SMILES) | IC50 (NFAT) [µM] | IC50 [1] [µM] | Cell permeability in PAMPA-cell membranes [2] [% flux] | IC50 (calcineurin) [µM] | Papp A→B at 2 h, 5 μM (in vitro) [×10⁻⁶ cm/s] | Papp B→A at 2 h, 5 μM (in vitro) [×10⁻⁶ cm/s] | Cell permeability in Jurkat cells (Jurkat cells) | Number of eosinophilic granulocytes (eosinophils) in bronchial lavage ([3]; FIG. 3) | Number of eosinophilic granulocytes (eosinophils) in lung tissue ([3]; FIG. 4) | Number of CD4 positive T-cells in bronchial lavage (BAL) ([3]; FIG. 5) | Number of CD4 positive T-cells in the lung tissue ([3]; FIG. 6)
1 | CC[C@@H]1NC(=O)[C@H]([C@H](O)[C@H](C)Cc2nc3cc(NC(=N)N)ccc3[nH]2)N(C)C(=O)[C@H](C(C)C)N(C)C(=O)[C@H](CC(C)C)N(C)C(=O)[C@H](CC(C)C)N(C)C(=O)[C@@H](C)NC(=O)[C@H](C)NC(=O)[C@H](CC(C)C)N(C)C(=O)[C@H](C(C)C)NC(=O)[C@H](CC(C)C)N(C)C(=O)CN(C)C1=O [Compound 46] | > 10 | 0.0131 | 13.5 | 6.63 | 0.4 |  |  |  |  |  | 
2 | CC[C@@H]1NC(=O)[C@H]([C@H](O)[C@H](C)Cc2nc3cc(S(N)(=O)=O)ccc3[nH]2)N(C)C(=O)[C@H](C(C)C)N(C)C(=O)[C@H](CC(C)C)N(C)C(=O)[C@H](CC(C)C)N(C)C(=O)[C@@H](C)NC(=O)[C@H](C)NC(=O)[C@H](CC(C)C)N(C)C(=O)[C@H](C(C)C)NC(=O)[C@H](CC(C)C)N(C)C(=O)CN(C)C1=O [Compound 34] | > 10 | 0.0164 | 19.9 | 6.4 | < 0.6 | 0.87 |  |  |  |  | 
3 | CC[C@@H]1NC(=O)[C@H]([C@H](O)[C@H](C)Cc2nc3ccc(C(=O)O)cc3[nH]2)N(C)C(=O)[C@H](C(C)C)N(C)C(=O)[C@H](CC(C)C)N(C)C(=O)[C@H](CC(C)C)N(C)C(=O)[C@@H](C)NC(=O)[C@H](C)NC(=O)[C@H](CC(C)C)N(C)C(=O)[C@H](C(C)C)NC(=O)[C@H](CC(C)C)N(C)C(=O)CN(C)C1=O [Compound 5] | > 10 |  | 1.7 | > 10 | 0.17 | 0.13 | not cell permeable | reduced very significantly | reduced very significantly | reduced very significantly | reduced very significantly
4 | CC[C@@H]1NC(=O)[C@H]([C@H](O)[C@H](C)Cc2nc3cc(C(=N)N)ccc3[nH]2)N(C)C(=O)[C@H](C(C)C)N(C)C(=O)[C@H](CC(C)C)N(C)C(=O)[C@H](CC(C)C)N(C)C(=O)[C@@H](C)NC(=O)[C@H](C)NC(=O)[C@H](CC(C)C)N(C)C(=O)[C@H](C(C)C)NC(=O)[C@H](CC(C)C)N(C)C(=O)CN(C)C1=O [Compound 35] | > 10 | 0.012 | 4 | 4.8 | < 0.35 | < 0.46 |  |  |  |  | 
5 | CC[C@@H]1NC(=O)[C@H]([C@H](O)[C@H](C)Cc2nc3cc(S(=O)(=O)O)ccc3[nH]2)N(C)C(=O)[C@H](C(C)C)N(C)C(=O)[C@H](CC(C)C)N(C)C(=O)[C@H](CC(C)C)N(C)C(=O)[C@@H](C)NC(=O)[C@H](C)NC(=O)[C@H](CC(C)C)N(C)C(=O)[C@H](C(C)C)NC(=O)[C@H](CC(C)C)N(C)C(=O)CN(C)C1=O [Compound 22] | > 10 | 0.0087 | 4.1 | > 10 | 0.9 |  |  |  |  |  | 
